# Measurements reported in ChEMBL document CHEMBL1201862, “PubChem BioAssay data set” (2004).
#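 Exposure lasted 48 hours, with cells grown in 96-well plates and compounds tested at five concentrations. GI50: concentration for 50% inhibition of growth.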 The source made the active and inactive calls. Rule as the data show it: active = GI50 up to about 1.1 µM and inactive = higher.
# How the values were obtained:
# Assay in all cases: inhibition of tumour cell growth, NCI panel, 48 h
# [1] = test system: BT-549
# [2] = test system: CCRF-CEM
# [3] = test system: HOP-62
# [4] = test system: HOP-92
# [5] = test system: Hs-578T
# [6] = test system: K562
# [7] = test system: MCF7
# [8] = test system: MDA-MB-231
# [9] = test system: MDA-N
# [10] = test system: Malme-3M
# [11] = test system: OVCAR-3
# [12] = test system: OVCAR-4
# [13] = test system: OVCAR-5
# [14] = test system: PC-3
# [15] = test system: T47D
# [16] = test system: UACC-257
SMILES,GI50 [1],GI50 [2],GI50 [3],GI50 [4],GI50 [5],GI50 [6],GI50 [7],GI50 [8],GI50 [9],GI50 [10],GI50 [11],GI50 [12],GI50 [13],GI50 [14],GI50 [15],GI50 [16]
CCCCSCc1nc2nc(Cl)c(Cl)nc2[nH]1,27.1 µM (inactive),11.3 µM (inactive),16.1 µM (inactive),24.5 µM (inactive),35.6 µM (inactive),24 µM (inactive),23.6 µM (inactive),24.6 µM (inactive),25.1 µM (inactive),20.3 µM (inactive),12.4 µM (inactive),29.5 µM (inactive),30.9 µM (inactive),31.6 µM (inactive),15.7 µM (inactive),16.1 µM (inactive)
Nc1ccc(S(=O)(=O)c2ccc(NC(=O)c3cccnc3)cc2)cc1,92 µM (inactive),–,> 100 µM (inactive),> 100 µM (inactive),80.9 µM (inactive),78 µM (inactive),> 100 µM (inactive),> 100 µM (inactive),> 100 µM (inactive),> 100 µM (inactive),> 100 µM (inactive),62.4 µM (inactive),> 100 µM (inactive),75 µM (inactive),36.8 µM (inactive),53 µM (inactive)
CCOc1cc2c(cc1O)/C(=N\N)C[C@@H]1[C@@H]2CC[C@]2(C)[C@@H](O)CC[C@@H]12,4.26 µM (inactive),2.38 µM (inactive),3.66 µM (inactive),13.2 µM (inactive),3.06 µM (inactive),0.42 µM (active),2.68 µM (inactive),5.62 µM (inactive),0.261 µM (active),1.54 µM (inactive),2.32 µM (inactive),24.7 µM (inactive),36.4 µM (inactive),6.34 µM (inactive),8.32 µM (inactive),7.43 µM (inactive)
O=C1Nc2c(Cl)cccc2/C1=N/Nc1ccccc1[N+](=O)[O-],28 µM (inactive),46 µM (inactive),9.27 µM (inactive),–,7.87 µM (inactive),36.9 µM (inactive),14.7 µM (inactive),4.97 µM (inactive),25.6 µM (inactive),3.58 µM (inactive),44.4 µM (inactive),8.81 µM (inactive),50.7 µM (inactive),31.9 µM (inactive),22.2 µM (inactive),22.4 µM (inactive)
COc1cc(/C=C2\C[C@H]3[C@@H]4CC=C5C[C@@H](O)CC[C@]5(C)[C@H]4CC[C@]3(C)[C@H]2O)cc(OC)c1OC,15.4 µM (inactive),–,10.8 µM (inactive),12.7 µM (inactive),19.9 µM (inactive),5.97 µM (inactive),8.34 µM (inactive),11.4 µM (inactive),21.9 µM (inactive),33.1 µM (inactive),12.2 µM (inactive),7.45 µM (inactive),26.3 µM (inactive),16.6 µM (inactive),3.48 µM (inactive),14.8 µM (inactive)
Nc1ccc(-c2ncc3cc(-c4cccc(-c5cc6cnc(-c7ccc(N)cc7)nc6c6ccccc56)c4)c4ccccc4c3n2)cc1,> 100 µM (inactive),> 100 µM (inactive),> 100 µM (inactive),> 100 µM (inactive),> 100 µM (inactive),> 100 µM (inactive),> 100 µM (inactive),> 100 µM (inactive),> 100 µM (inactive),–,> 100 µM (inactive),–,> 100 µM (inactive),> 100 µM (inactive),> 100 µM (inactive),> 100 µM (inactive)
Nc1cccc(C#Cc2cccc(C#Cc3cccc(N)n3)n2)n1,> 100 µM (inactive),5.85 µM (inactive),> 100 µM (inactive),> 100 µM (inactive),> 100 µM (inactive),> 100 µM (inactive),> 100 µM (inactive),> 100 µM (inactive),79.3 µM (inactive),–,> 100 µM (inactive),> 100 µM (inactive),> 100 µM (inactive),> 100 µM (inactive),76.9 µM (inactive),> 100 µM (inactive)
CCN1CCC(O)(c2ccc([N+](=O)[O-])cc2)C(C(=O)c2ccc([N+](=O)[O-])cc2)C1 (configuration not stated),16.9 µM (inactive),11.9 µM (inactive),77.3 µM (inactive),–,23.2 µM (inactive),36.8 µM (inactive),15.4 µM (inactive),25.8 µM (inactive),20.8 µM (inactive),20.1 µM (inactive),14.8 µM (inactive),25.9 µM (inactive),52.6 µM (inactive),26.6 µM (inactive),23.3 µM (inactive),17.9 µM (inactive)
N/C(=N\N=C\c1cc2ccccc2s1)c1cnccn1,> 100 µM (inactive),53.3 µM (inactive),> 100 µM (inactive),> 100 µM (inactive),> 100 µM (inactive),3.85 µM (inactive),5.24 µM (inactive),82.6 µM (inactive),> 100 µM (inactive),–,> 100 µM (inactive),> 100 µM (inactive),> 100 µM (inactive),92.3 µM (inactive),8.93 µM (inactive),> 100 µM (inactive)
Cc1cn(C2CC(O)C(COC(=O)NCCC(F)(F)C(F)(F)C(F)(F)C(F)(F)F)O2)c(=O)[nH]c1=O (configuration not stated),> 100 µM (inactive),> 100 µM (inactive),> 100 µM (inactive),54.6 µM (inactive),80.5 µM (inactive),> 100 µM (inactive),> 100 µM (inactive),> 100 µM (inactive),86.3 µM (inactive),> 100 µM (inactive),> 100 µM (inactive),> 100 µM (inactive),> 100 µM (inactive),> 100 µM (inactive),> 100 µM (inactive),> 100 µM (inactive)
CN(Cc1cnc2c(N)nc(N)nc2n1)c1ccc(Cl)cc1,> 100 µM (inactive),> 100 µM (inactive),39.3 µM (inactive),–,33.9 µM (inactive),> 100 µM (inactive),95.5 µM (inactive),> 100 µM (inactive),> 100 µM (inactive),> 100 µM (inactive),> 100 µM (inactive),–,> 100 µM (inactive),65.5 µM (inactive),52.5 µM (inactive),78.5 µM (inactive)
COc1ccc(C(=O)N2CCc3c([nH]c4ccccc34)C2C(=O)O)o1 (configuration not stated),> 10 µM (inactive),> 10 µM (inactive),> 10 µM (inactive),> 10 µM (inactive),> 10 µM (inactive),> 10 µM (inactive),> 10 µM (inactive),> 10 µM (inactive),> 10 µM (inactive),> 10 µM (inactive),> 10 µM (inactive),> 10 µM (inactive),–,> 10 µM (inactive),> 10 µM (inactive),> 10 µM (inactive)
Cc1noc(/N=C2\C=C(O)C(=O)c3ccccc32)c1C,1.05 µM (active),–,2.18 µM (inactive),18.8 µM (inactive),2.24 µM (inactive),0.206 µM (active),0.495 µM (active),11.6 µM (inactive),0.173 µM (active),2.55 µM (inactive),4.31 µM (inactive),19.5 µM (inactive),9.27 µM (inactive),16.4 µM (inactive),33.3 µM (inactive),4.19 µM (inactive)
CC(C)(C)c1cc(S(=O)(=O)O)c2oc(-c3ccccc3)cc(=O)c2c1,> 100 µM (inactive),> 100 µM (inactive),> 100 µM (inactive),–,> 100 µM (inactive),> 100 µM (inactive),> 100 µM (inactive),> 100 µM (inactive),> 100 µM (inactive),> 100 µM (inactive),> 100 µM (inactive),–,–,> 100 µM (inactive),84.9 µM (inactive),> 100 µM (inactive)
COc1cc([N+](=O)[O-])ccc1NC(=O)C(F)(F)F,> 100 µM (inactive),> 100 µM (inactive),> 100 µM (inactive),–,> 100 µM (inactive),> 100 µM (inactive),> 100 µM (inactive),> 100 µM (inactive),> 100 µM (inactive),–,> 100 µM (inactive),> 100 µM (inactive),> 100 µM (inactive),> 100 µM (inactive),97.7 µM (inactive),> 100 µM (inactive)
COc1cc([N+](=O)[O-])c(S(=O)(=O)O)cc1N,> 100 µM (inactive),> 100 µM (inactive),> 100 µM (inactive),–,> 100 µM (inactive),> 100 µM (inactive),> 100 µM (inactive),> 100 µM (inactive),> 100 µM (inactive),–,> 100 µM (inactive),> 100 µM (inactive),> 100 µM (inactive),> 100 µM (inactive),> 100 µM (inactive),> 100 µM (inactive)
COc1cc(C(=O)C2C(=O)c3ccccc3C2C2(O)c3ccccc3CC2C(O)c2cc(OC)c(OC)c(OC)c2)cc(OC)c1OC (configuration not stated),> 100 µM (inactive),–,17.6 µM (inactive),51.2 µM (inactive),> 100 µM (inactive),> 100 µM (inactive),> 100 µM (inactive),94.2 µM (inactive),> 100 µM (inactive),> 100 µM (inactive),> 100 µM (inactive),> 100 µM (inactive),> 100 µM (inactive),> 100 µM (inactive),> 100 µM (inactive),> 100 µM (inactive)
COc1cc2cc(C(=O)N3CC(CCl)c4c3cc(NC(=O)OCc3ccc([N+](=O)[O-])cc3)c3ccccc43)[nH]c2c(OC)c1OC (configuration not stated),97.3 µM (inactive),8.91 µM (inactive),16.3 µM (inactive),> 45.7 µM (inactive),> 53.1 µM (inactive),–,36.1 µM (inactive),44.9 µM (inactive),> 100 µM (inactive),> 100 µM (inactive),> 100 µM (inactive),> 100 µM (inactive),29.4 µM (inactive),> 60 µM (inactive),24.3 µM (inactive),> 71.3 µM (inactive)
